Data reported in patent US9499550B2 (BRISTOL-MYERS SQUIBB COMPANY, priority 2012, dated 2016).
Read-outs that look alike come from different tables or passages of the source.

Tests used:
[1] = system: HCV genotype 1a (H77 strain) replicon in HUH-7 cells; experiment: HCV replicon luciferase reporter assay, genotype 1a; assay type: cell-based; conditions: HCV genotype 1a replicon luciferase, 3 days incubation
Procedure, shortened: (§1)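 Replicon inhibition for both genotypes was measured as Renilla luciferase signal (EnduRen, 7.5 μM final, 2 h) after 3-day, 37° C exposure of replicon-bearing HUH-7 cells in 4% FCS DMEM, 0.5% DMSO. The 1b construct carries S1179I; the 1a H77 construct carries P1496L and S2204I. Twenty-point, 3-fold dilutions were fitted four-parametrically for EC50, and CC50 was taken from multiplexed Cell Titer-Blue.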

[2] = system: HCV genotype 1b (Con1) replicon in HUH-7 cells; experiment: HCV replicon luciferase reporter assay, genotype 1b; assay type: cell-based; conditions: HCV genotype 1b replicon luciferase, 3 days incubation
Procedure, shortened: as §1

[3] = Hepatitis C virus, Huh-7, 72 h, read-out: LE_1a (EC50, range)
[4] = Hepatitis C virus, Huh-7, 72 h, read-out: LE_1b (EC50, range)

| Compound | EC50 [1, 3] [nM] | EC50 [2, 4] [nM] | EC50 ([1]; read-out: LE_1a (EC50)) [nM] | EC50 ([2]; read-out: LE_1b (EC50)) [nM] |
| --- | --- | --- | --- | --- |
| CC[C@@H]1C[C@H](C)CC/C=C\[C@@H]2C[C@@]2(C(=O)NS(=O)(=O)C2CC2)NC(=O)[C@@H]2C[C@@H](Oc3nccc4c5c(ccc34)N(C)CCO5)CN2C(=O)[C@H]1NC(=O)NC(C)(C)C [Compound 5316, (2R,6S,7R,9R,13aS,14aR,16aS,Z)-6-(3-(tert-butyl)ureido)-N-(cyclopropylsulfonyl)-7-ethyl-9-methyl-2-((4-methyl-3,4-dihydro-2H-[1,4]oxazino[2,3-f]isoquinolin-7-yl)oxy)-5,16-dioxo-1,2,3,5,6,7,8,9,10,11,13a,14,14a,15,16,16a-hexadecahydrocyclopropa[e]pyrrolo[1,2-a][1,4]diazacyclopentadecine-14a-carboxamide] | < 5.46 | < 5.46 | – | – |
| CC[C@@H]1C[C@@H](C)CC/C=C\[C@@H]2C[C@@]2(C(=O)NS(=O)(=O)C2CC2)NC(=O)[C@@H]2C[C@@H](Oc3nccc4c5c(ccc34)N(C)CCO5)CN2C(=O)[C@H]1NC(=O)C(=O)N(C)C [Compound 5317, N1-((2R,6S,7R,9S,13aS,14aR,16aS,Z)-14a-((cyclopropylsulfonyl)carbamoyl)-7-ethyl-9-methyl-2-((4-methyl-3,4-dihydro-2H-[1,4]oxazino[2,3-f]isoquinolin-7-yl)oxy)-5,16-dioxo-1,2,3,5,6,7,8,9,10,11,13a,14,14a,15,16,16a-hexadecahydrocyclopropa[e]pyrrolo[1,2-a][1,4]diazacyclopentadecin-6-yl)-N2,N2-dimethyloxalamide] | 4.82 to 103 | 4.82 to 103 | – | – |
| CC[C@@H]1C[C@H](C)CC/C=C\[C@@H]2C[C@@]2(C(=O)NS(=O)(=O)C2CC2)NC(=O)[C@@H]2C[C@@H](Oc3nccc4c5c(ccc34)N(C)CCO5)CN2C(=O)[C@H]1NC(=O)C(=O)N(C)C [Compound 5318, N1-((2R,6S,7R,9R,13aS,14aR,16aS,Z)-14a-((cyclopropylsulfonyl)carbamoyl)-7-ethyl-9-methyl-2-((4-methyl-3,4-dihydro-2H-[1,4]oxazino[2,3-f]isoquinolin-7-yl)oxy)-5,16-dioxo-1,2,3,5,6,7,8,9,10,11,13a,14,14a,15,16,16a-hexadecahydrocyclopropa[e]pyrrolo[1,2-a][1,4]diazacyclopentadecin-6-yl)-N2,N2-dimethyloxalamide] | < 5.46 | < 5.46 | – | – |
| CC[C@@H]1C[C@@H](C)CC/C=C\[C@@H]2C[C@@]2(C(=O)NS(=O)(=O)C2(CF)CC2)NC(=O)[C@@H]2C[C@@H](Oc3nccc4c5c(ccc34)N(C)CCO5)CN2C(=O)[C@H]1NC(=O)OC(C)(C)C(F)(F)F [Compound 5319, 1,1,1-trifluoro-2-methylpropan-2-yl((2R,6S,7R,9S,13aS,14aR,16aS,Z)-7-ethyl-14a-(((1-(fluoromethyl)cyclopropyl)sulfonyl)carbamoyl)-9-methyl-2-((4-methyl-3,4-dihydro-2H-[1,4]oxazino[2,3-f]isoquinolin-7-yl)oxy)-5,16-dioxo-1,2,3,5,6,7,8,9,10,11,13a,14,14a,15,16,16a-hexadecahydrocyclopropa[e]pyrrolo[1,2-a][1,4]diazacyclopentadecin-6-yl)carbamate] | – | – | 33.6 | 14.2 |
| C[C@H]1CC/C=C\[C@@H]2C[C@@]2(C(=O)NS(=O)(=O)C2(CF)CC2)NC(=O)[C@@H]2C[C@@H](Oc3nccc4c5c(ccc34)OCCO5)CN2C(=O)[C@@H](NC(=O)OC(C)(C)C(F)(F)F)[C@H](C)C1 [Compound 5322, 1,1,1-trifluoro-2-methylpropan-2-yl((2R,6S,7R,9S,13aS,14aR,16aS,Z)-2-((2,3-dihydro-[1,4]dioxino[2,3-f]isoquinolin-7-yl)oxy)-14a-(((1-(fluoromethyl)cyclopropyl)sulfonyl)carbamoyl)-7,9-dimethyl-5,16-dioxo-1,2,3,5,6,7,8,9,10,11,13a,14,14a,15,16,16a-hexadecahydrocyclopropa[e]pyrrolo[1,2-a][1,4]diazacyclopentadecin-6-yl)carbamate] | < 5.46 | < 5.46 | – | – |
